# Results from patent publication US8748423B2, “Compositions and methods for the prevention and treatment of cancer” (Kinex Pharmaceuticals, LLC, priority 2010, dated 2014).
# Read-outs that look alike come from different tables or passages of the source.
# Columns and labels:
# U87 = experiment: brain tumor cell line growth inhibition, U87; type: cell-based; details: Homo sapiens, U-87 MG; U87, glioblastoma; astrocytoma
# Experimental: These GI50s were determined using standard tumor growth inhibition assays.
# [1] = plasma and brain exposure after single oral dose; type: in vivo, Male CD-1 Mice; details: for Brain Concentrations, Group A, B, C / Plasma Concentrations, Group A, B, C / concentration at 0 h: 0 hr; for Kp: brain and plasma, read-out: AUClast Brain/AUClast Plasma Ratio
# Experimental: […] The concentration of Compound 76 was measured in plasma and in brain tissue homogenates.
# Plasma concentrations were measured in mice after oral administration. All doses were formulated in purified water. Four groups of male CD-1 mice were dosed after an overnight fast and fed 4 hours post-dose. Dosing was as follows:
# Protein was precipitated with 0.25 mL acetonitrile for plasma, 0.25 mL for brain. After centrifugation, supernatant was directly injected into an LC/MS system. The limit of quantitation was 1 ng/mL using a 50 μL aliquot for plasma and a […] aliquot for brain. The standard curve was 1 to 1,000 ng/mL for both plasma and brain.
# HPLC conditions were as follows:
# • HPLC System: Shimadzu SCL-10 System • Analytical Column: Aquasil C18 5 μm 100×2 mm column. • Column Temperature: Ambient temperature • Autosampler Temperature: Ambient temperature • Mobile Phase • A) 10 mM Ammonium formate in water (pH 4). • B) Acetonitrile. • Flow Rate: 0.6 mL/min • Injection Volume: 2 μL
# [2] = PO 10 mg/kg (Group 3), single values
# [3] = PO 50 mg/kg (Group 4), single values
# [4] = male, CD-1, mouse, brain, po, 10 mg/kg, PO 10 mg/kg (Group 3), BLQ = 0, read-out: Brain Concentrations, Mean
# [5] = male, CD-1, mouse, brain, po, 50 mg/kg, PO 50 mg/kg (Group 4), read-out: Brain Concentrations, Mean
# [6] = male, CD-1, mouse, plasma, po, 10 mg/kg, PO 10 mg/kg (Group 3), read-out: Plasma Concentrations, Mean
# [7] = male, CD-1, mouse, plasma, po, 50 mg/kg, PO 50 mg/kg (Group 4), read-out: Plasma Concentrations, Mean
# [8] = male, CD-1, mouse, po, Brain, single dose of 50 mg/kg (Group 4)
# [9] = male, CD-1, mouse, po, Plasma, single dose of 50 mg/kg (Group 4)
# [10] = male, CD-1, mouse, Brain, single oral dose of 10 mg/kg
# [11] = male, CD-1, mouse, Plasma, single oral dose of 10 mg/kg
structure (smiles),measurement,setting,value
O=C(Cc1ccc(-c2ccc(N3CCOCC3)cc2)cn1)NCc1cccc(F)c1 [Compound 76],IC50,U87,9.7 nM
same,AUClast,"[1]; Brain, single dose of 50 mg/kg (Group 4)",3338 ng·h/g
same,AUClast,"[1]; Brain, single oral dose of 10 mg/kg",656 ng·h/g
same,"Brain Concentrations, Group A, B, C",[1]; [2],BLQ (Below Limit of Quantitation (1 ng/mL))
same,"Plasma Concentrations, Group A, B, C",[1]; [2],BLQ (Below Limit of Quantitation (1 ng/mL))
same,"Brain Concentrations, Group A, B, C",[1]; [3],BLQ (Below Limit of Quantitation (1 ng/mL))
same,"Plasma Concentrations, Group A, B, C",[1]; [3],BLQ (Below Limit of Quantitation (1 ng/mL))
same,Kp,"[1]; male, CD-1, mouse, oral 10 mg/kg",0.76
same,Kp,"[1]; male, CD-1, mouse, oral 50 mg/kg",0.61
same,concentration at 0 h,[1]; [4],0 ng/g
same,concentration at 0.5 h,"[1]; male, CD-1, mouse, brain, po, 10 mg/kg, PO 10 mg/kg (Group 3), 0.5 hr, read-out: Brain Concentrations, Mean",99.8 ng/g
same,concentration at 1 h,"[1]; male, CD-1, mouse, brain, po, 10 mg/kg, PO 10 mg/kg (Group 3), 1 hr, read-out: Brain Concentrations, Mean",279 ng/g
same,concentration at 1 h,"[1]; male, CD-1, mouse, brain, po, 10 mg/kg, PO 10 mg/kg (Group 3), 1 hr, single values, read-out: Brain Concentrations, Group A, B, C",228 ng/g
same,concentration at 2 h,"[1]; male, CD-1, mouse, brain, po, 10 mg/kg, PO 10 mg/kg (Group 3), read-out: Brain Concentrations, Mean",175 ng/g
same,concentration at 5 h,[1]; [4],31.8 ng/g
same,concentration at 5 h,"[1]; male, CD-1, mouse, brain, po, 10 mg/kg, PO 10 mg/kg (Group 3), single values, read-out: Brain Concentrations, Group A, B, C",47.5 ng/g
same,concentration at 0 h,"[1]; male, CD-1, mouse, brain, po, 50 mg/kg, PO 50 mg/kg (Group 4), BLQ = 0, read-out: Brain Concentrations, Mean",0 ng/g
same,concentration at 0.5 hr,"[1]; male, CD-1, mouse, brain, po, 50 mg/kg, PO 50 mg/kg (Group 4), 0.5 hr, read-out: Brain Concentrations, Mean",1380 ng/g
same,concentration at 1 hr,"[1]; male, CD-1, mouse, brain, po, 50 mg/kg, PO 50 mg/kg (Group 4), 1 hr, read-out: Brain Concentrations, Mean",1100 ng/g
same,concentration at 2 h,[1]; [5],758 ng/g
same,concentration at 5 h,[1]; [5],207 ng/g
same,concentration at 0 h,"[1]; male, CD-1, mouse, plasma, po, 10 mg/kg, PO 10 mg/kg (Group 3), BLQ = 0, read-out: Plasma Concentrations, Mean",0 ng/mL
same,concentration at 0.5 h,"[1]; male, CD-1, mouse, plasma, po, 10 mg/kg, PO 10 mg/kg (Group 3), 0.5 hr, read-out: Plasma Concentrations, Mean",148 ng/mL
same,concentration at 1 h,"[1]; male, CD-1, mouse, plasma, po, 10 mg/kg, PO 10 mg/kg (Group 3), 1 hr, read-out: Plasma Concentrations, Mean",426 ng/mL
same,concentration at 2 h,[1]; [6],205 ng/mL
same,concentration at 5 h,[1]; [6],40 ng/mL
same,concentration at 0 h,"[1]; male, CD-1, mouse, plasma, po, 50 mg/kg, PO 50 mg/kg (Group 4), BLQ = 0, read-out: Plasma Concentrations, Mean",0 ng/mL
same,concentration at 0.5 h,"[1]; male, CD-1, mouse, plasma, po, 50 mg/kg, PO 50 mg/kg (Group 4), 0.5 hr, read-out: Plasma Concentrations, Mean",1800 ng/mL
same,concentration at 0.5 h,"[1]; male, CD-1, mouse, plasma, po, 50 mg/kg, PO 50 mg/kg (Group 4), 0.5 hr, single values, read-out: Plasma Concentrations, Group A, B, C",1490 ng/mL
same,concentration at 1 h,"[1]; male, CD-1, mouse, plasma, po, 50 mg/kg, PO 50 mg/kg (Group 4), 1 hr, read-out: Plasma Concentrations, Mean",2140 ng/mL
same,concentration at 2 h,[1]; [7],1300 ng/mL
same,concentration at 5 h,[1]; [7],230 ng/mL
same,Cmax,[1]; [8],1380 ng/g
same,Tmax,[1]; [8],0.5 h
same,AUC(0-t),[1]; [9],5440 ng·h/mL
same,Cmax,[1]; [9],2140 ng/mL
same,Tmax,[1]; [9],1 h
same,Cmax,[1]; [10],279 ng/g
same,Tmax,[1]; [10],1 h
same,AUC(0-t),[1]; [11],863 ng·h/mL
same,Cmax,[1]; [11],426 ng/mL
same,Tmax,[1]; [11],1 h
same,brain penetration from plasma,[1]; single oral dose of 10 mg/kg,76%
